Data taken from ChEMBL document CHEMBL1201862, “PubChem BioAssay data set” (2004).
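48-hour exposure; five concentrations; linearly interpolated endpoints. Abbreviation: GI50, concentration required for 50% inhibition of growth.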 Calls of active or inactive are those of the source. Cut-off read from the data, not from the text of the source: active = GI50 up to about 1.1 µM and inactive = higher.

Assays:
Assay in all cases: DTP human tumour cell line panel, 48 h
BT-549 = test system: BT-549
DU-145 = test system: DU-145
Hs-578T = test system: Hs-578T
MDA-MB-231 = test system: MDA-MB-231
MDA-MB-435 = test system: MDA-MB-435
MDA-N = test system: MDA-N
PC-3 = test system: PC-3
T47D = test system: T47D

Row | SMILES | GI50 (BT-549) | GI50 (DU-145) | GI50 (Hs-578T) | GI50 (MDA-MB-231) | GI50 (MDA-MB-435) | GI50 (MDA-N) | GI50 (PC-3) | GI50 (T47D)
1 | O=c1ccn(COC(COCc2ccccc2)COCc2ccccc2)c(=O)[nH]1 | > 100 µM (inactive) | > 100 µM (inactive) | > 100 µM (inactive) | 55.3 µM (inactive) | > 100 µM (inactive) | > 100 µM (inactive) | 77.6 µM (inactive) | 64.1 µM (inactive)
2 | O=c1[nH]c(-c2ccc(Cl)cc2)cc2ccsc12 | 4.82 µM (inactive) | 2.05 µM (inactive) | – | – | 0.453 µM (active) | 1.58 µM (inactive) | 8.83 µM (inactive) | 2.37 µM (inactive)
